Reference: patent publication US20230348416A1, “GPR52 MODULATOR COMPOUNDS” (Heptares Therapeutics Limited, priority 2020, published 2023)

Molecular target: T1, human GPR52 (Homo sapiens, UniProt Q9Y2T5)
T1 construct: expressed in transfected cells; host or cells: HEKf suspension cells infected with BacMam virus
Assay: GPR52 Agonist Functional cAMP Assay
Assay type: cell-based
Details: for EC50: HEKf cells infected with human GPR52 BacMam virus, HTRF cAMP, 30 min at 37° C., read-out: PEC50 average (converted)
Procedure: GPR52 Agonist Functional cAMP Assay
HEKf suspension cells were infected for 24 h with 0.1% v/v human GPR52 expressing BacMam virus, a modified baculovirus designed for mammalian gene expression. Following BacMam infection, cells were pelleted by centrifugation (335 g, 5 min), resuspended in cell freezing medium (Sigma) and frozen at −150° C. until required. On experiment day, 25 nL GPR52 compound dilutions, prepared in DMSO, were stamped onto proxiplates (PerkinElmer) by a LabCyte ECHO acoustic dispenser. Frozen cells were thawed and resuspended in assay stimulation buffer (Cisbio) containing 0.5 mM 3-iso-butyl-1-methylxanthine (IBMX, Sigma) to achieve a density of 2000 cells per well. 10 μl cells were added to assay plates using a Multidrop Combi Reagent Dispenser (ThermoFisher) before centrifugation (335 g, 1 min). Cells were incubated with compounds at 37° C. for 30 min prior to addition of cAMP detection reagents (HiRange cAMP kit, Cisbio) which were prepared according to the manufacturer's instructions. Plates were shaken for 1 h at room temperature before reading on a PHERAstar FS plate reader (BMG Labtech) using standard HTRF settings. HTRF ratios were obtained by dividing the acceptor emissions (665 nm) by the donor emissions (620 nm) and multiplying by 10,000.

[1] = maximal response normalised to DMSO (0%) and compound 7m of J. Med. Chem., 2014, 57, 5226 (100%)

T1 sequence (Q9Y2T5 whole entry): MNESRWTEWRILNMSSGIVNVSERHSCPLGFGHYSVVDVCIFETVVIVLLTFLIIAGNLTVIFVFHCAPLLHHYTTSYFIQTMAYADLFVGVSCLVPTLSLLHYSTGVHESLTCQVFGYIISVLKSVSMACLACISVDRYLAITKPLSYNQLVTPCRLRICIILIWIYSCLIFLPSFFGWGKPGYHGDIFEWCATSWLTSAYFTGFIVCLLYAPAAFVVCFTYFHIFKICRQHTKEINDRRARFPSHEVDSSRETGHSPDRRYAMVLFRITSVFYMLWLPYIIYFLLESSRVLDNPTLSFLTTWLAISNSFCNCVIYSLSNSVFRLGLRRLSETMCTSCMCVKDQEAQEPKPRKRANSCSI

| SMILES | EC50 [nM] | Emax [1] [%] | Emax (%) [1] [%] |
| --- | --- | --- | --- |
| CC(=O)NC1CCCc2c1nnn2-c1cc(Oc2cc(F)cc(C(F)(F)F)c2)ccn1 (stereo not drawn) [Example 6, N-(1-(4-(3-fluoro-5-(trifluoromethyl)phenoxy)pyridin-2-yl)-4,5,6,7-tetrahydro-1H-benzo[d][1,2,3]triazol-4-yl)acetamide] | 126 | 89 | – |
| COCCNC1CCCc2c1nnn2-c1cc(Cc2cc(F)cc(C(F)(F)F)c2)ccn1 (stereo not drawn) [Example 8, 1-(4-(3-fluoro-5-(trifluoromethyl)benzyl)pyridin-2-yl)-N-(2-methoxyethyl)-4,5,6,7-tetrahydro-1H-benzo[d][1,2,3]triazol-4-amine] | 50.1 | 94 | – |
| NC1CCCc2c1nnn2-c1cc(Cc2cc(F)cc(C(F)(F)F)c2)ccn1 (single isomer, unassigned) [Example 1 Isomer 2, 1-(4-(3-fluoro-5-(trifluoromethyl)benzyl)pyridin-2-yl)-4,5,6,7-tetrahydro-1H-benzo[d][1,2,3]triazol-4-amine] | 63.1 | – | 97 |
| CC(=O)NC1CCCc2c1nnn2-c1cc(Cc2cccc(C(F)(F)F)c2)ccn1 (stereo not drawn) [Example 11, N-(1-(4-(3-(trifluoromethyl)benzyl)pyridin-2-yl)-4,5,6,7-tetrahydro-1H-benzo[d][1,2,3]triazol-4-yl)acetamide] | 200 | 91 | – |
| O=C(NC1CCCc2c1nnn2-c1cc(Cc2cc(F)cc(C(F)(F)F)c2)ccn1)C(F)F (stereo not drawn) [Example 4, 2,2-difluoro-N-(1-(4-(3-fluoro-5-(trifluoromethyl)benzyl)pyridin-2-yl)-4,5,6,7-tetrahydro-1H-benzo[d][1,2,3]triazol-4-yl)acetamide] | 25.1 | 87 | – |
| NC1CCCc2c1nnn2-c1cc(Cc2cc(F)cc(C(F)(F)F)c2)ccn1 (stereo not drawn) [Example 1, 1-(4-(3-fluoro-5-(trifluoromethyl)benzyl)pyridin-2-yl)-4,5,6,7-tetrahydro-1H-benzo[d][1,2,3]triazol-4-amine] | 25.1 | 100 | – |
| CC(=O)NC1CCCc2c1nnn2-c1cc(Cc2cc(F)cc(C(F)(F)F)c2)ccn1 (single isomer, unassigned) [Example 2 Isomer 2, N-(1-(4-(3-fluoro-5-(trifluoromethyl)benzyl)pyridin-2-yl)-4,5,6,7-tetrahydro-1H-benzo[d][1,2,3]triazol-4-yl)acetamide] | 2510 | 78 | – |
| Fc1cc(Cc2ccnc(-n3nnc4c3CCCC4NC3COC3)c2)cc(C(F)(F)F)c1 (stereo not drawn) [Example 9, 1-(4-(3-fluoro-5-(trifluoromethyl)benzyl)pyridin-2-yl)-N-(oxetan-3-yl)-4,5,6,7-tetrahydro-1H-benzo[d][1,2,3]triazol-4-amine] | 100 | 93 | – |
| Fc1cc(Cc2ccnc(-n3nnc4c3CCCC4NC3CCOC3)c2)cc(C(F)(F)F)c1 (stereo not drawn) [Example 10, 1-(4-(3-fluoro-5-(trifluoromethyl)benzyl)pyridin-2-yl)-N-(tetrahydrofuran-3-yl)-4,5,6,7-tetrahydro-1H-benzo[d][1,2,3]triazol-4-amine] | 31.6 | 94 | – |
| CC(=O)NC1CCCc2c1nnn2-c1cc(Cc2cc(F)cc(OC(F)F)c2)ccn1 (stereo not drawn) [Example 12, N-(1-(4-(3-(difluoromethoxy)-5-fluorobenzyl)pyridin-2-yl)-4,5,6,7-tetrahydro-1H-benzo[d][1,2,3]triazol-4-yl)acetamide] | 31.6 | 87 | – |
| CC(=O)NC1CCCc2c1nnn2-c1cc(Cc2cc(F)cc(CF)c2)ccn1 (stereo not drawn) [Example 14, N-(1-(4-(3-fluoro-5-(fluoromethyl)benzyl)pyridin-2-yl)-4,5,6,7-tetrahydro-1H-benzo[d][1,2,3]triazol-4-yl)acetamide] | 50.1 | 90 | – |
| NC1CCCc2c1nnn2-c1cc(Cc2cc(F)cc(C(F)(F)F)c2)ccn1 (single isomer, unassigned) [Example 1 Isomer 1, 1-(4-(3-fluoro-5-(trifluoromethyl)benzyl)pyridin-2-yl)-4,5,6,7-tetrahydro-1H-benzo[d][1,2,3]triazol-4-amine] | 12.6 | 101 | – |
